Data published in article PMC6695665, “Interrogating the Essential Bacterial Cell Division Protein FtsQ with Fragments Using Target Immobilized NMR Screening (TINS)” (International Journal of Molecular Sciences, 2019).
Read-outs that look alike come from different tables or passages of the source.

What was measured:
Assay in all cases: 1H, […]-HSQC NMR chemical shift perturbation; TINS primary screen (T/R […])
Type in all cases: binding
[1] = target: T1, FtsQ (Escherichia coli, UniProt P06136)
T1 construct: soluble periplasmic domain (FtsQp), 15N-labeled, N-terminal tags cleaved by TEV

[2] = target: T1, FtsQ; remark: listed apart in the source
[3] = target: T1, FtsQ; remark: listed apart in the source

T1 sequence (P06136 50-276): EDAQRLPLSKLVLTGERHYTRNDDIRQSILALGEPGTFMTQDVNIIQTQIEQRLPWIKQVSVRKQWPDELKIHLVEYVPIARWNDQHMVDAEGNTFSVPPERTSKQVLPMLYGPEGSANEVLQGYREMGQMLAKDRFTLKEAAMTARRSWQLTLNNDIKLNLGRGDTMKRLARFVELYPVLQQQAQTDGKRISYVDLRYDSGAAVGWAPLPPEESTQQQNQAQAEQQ

## N[C@@H](Cc1cn(Cc2ccccc2)cn1)C(=O)O [compound 1]
[1]
  Kd: > 1000 µM

## C=C1[C@H](O)C[C@@H]2C[C@H]1C2(C)C [compound 2]
[2]
  Kd: > 1000 µM

## CN(C)c1nc(=O)n(C2CCCCC2)c(=O)n1C [compound 3]
[3]
  Kd: > 1000 µM
